# Measurements taken from ChEMBL document CHEMBL3396962, “Design and synthesis of N-methylpyrimidone derivatives as HIV-1 integrase inhibitors” (Bioorg Med Chem, 2015).
# Legend:
# [1] = target: Human immunodeficiency virus type 1 integrase (Human immunodeficiency virus 1, UniProt Q7ZJM1); assay: Inhibition of HIV-1 integrase after 1 hr by strand transfer activity assay
# [2] = tested on: Human immunodeficiency virus 1; assay: Antiviral activity against HIV-1 infected in human TZM-bl cells after 40 to 48 hrs by beta-galactosidase assay; assay type: functional, organism-based; settings: Human immunodeficiency virus 1, TZM-bl
# Chain of Human immunodeficiency virus type 1 integrase (Q7ZJM1 whole entry): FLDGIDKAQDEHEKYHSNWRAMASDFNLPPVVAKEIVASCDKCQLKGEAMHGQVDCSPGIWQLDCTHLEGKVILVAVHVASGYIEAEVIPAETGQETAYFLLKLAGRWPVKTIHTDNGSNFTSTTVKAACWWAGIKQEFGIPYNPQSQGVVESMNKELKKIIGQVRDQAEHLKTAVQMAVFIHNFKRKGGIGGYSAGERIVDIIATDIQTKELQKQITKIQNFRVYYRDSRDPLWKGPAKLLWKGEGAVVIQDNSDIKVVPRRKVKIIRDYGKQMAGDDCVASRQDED
SMILES,IC50 [1] [µM],EC50 [2] [µM]
COc1c(C(=O)N2CCN(CCCNC(=O)c3cc(O)c(O)c(O)c3)CC2)nc(Cc2ccccc2)n(C)c1=O,0.9,1.13
COc1c(C(=O)N2CCN(CCCNC(=O)c3cc(O)c(O)c(O)c3)CC2)nc(Cc2ccc(Cl)cc2)n(C)c1=O,2.4,4.27
COc1c(C(=O)N2CCN(CCCNC(=O)c3cc(O)c(O)c(O)c3)CC2)nc(Cc2ccc(F)cc2)n(C)c1=O,18.9,4.39
COc1c(C(=O)N2CCN(CCCNC(=O)c3cc(O)c(O)c(O)c3)CC2)nc(Cc2ccc(C)cc2)n(C)c1=O,3.5,2.76
COc1c(C(=O)N2CCN(CCCNC(=O)c3cc(O)c(O)c(O)c3)CC2)nc(Cc2ccc(Cl)c(Cl)c2)n(C)c1=O,22.4,–
COc1c(C(=O)N2CCN(CCNC(=O)c3cc(O)c(O)c(O)c3)CC2)nc(Cc2ccccc2)n(C)c1=O,18.6,–
COc1c(C(=O)N2CCN(CCNC(=O)c3cc(O)c(O)c(O)c3)CC2)nc(Cc2ccc(F)cc2)n(C)c1=O,2.5,–
COc1c(C(=O)N2CCN(CCNC(=O)c3cc(O)c(O)c(O)c3)CC2)nc(Cc2ccc(O)cc2)n(C)c1=O,0.7,–
COc1c(C(=O)N2CCN(CCCNC(=O)c3ccc(O)c(O)c3)CC2)nc(Cc2ccccc2)n(C)c1=O,> 100,–
COc1c(C(=O)N2CCN(CCCNC(=O)c3ccc(O)c(O)c3)CC2)nc(Cc2ccc(F)cc2)n(C)c1=O,> 100,–
COc1c(C(=O)N2CCN(CCCNC(=O)c3ccc(O)c(O)c3)CC2)nc(Cc2ccc(O)cc2)n(C)c1=O,> 100,–
